Values quoted from earlier work, collected in patent publication US7910613B2, “2-acylaminothiazole derivatives” (H. Lundbeck A/S, priority 2004, dated 2011).
Like-named read-outs stand apart in the source and are kept apart here.

Tests used:
[1] = system: mice; settings: mouse forced swimming test
[2] = system: mice; settings: for total immobility time: mouse tail suspension test
[3] = system: unilateral 6-OHDA (6-hydroxydopamine) lesioned mice and rats; settings: elicited by a subtreshold dose of levodopa
[4] = system: MPTP treated mice and 6-OHDA-lesioned rats
[5] = system: non-human primates
[6] = mice previously screened for having high immobility time

Nc1nc(Cl)nc2c1ncn2[C@@H]1O[C@H](CO)[C@@H](O)[C@H]1O [2-chloroadenosine]
immobility time [1]: increased immobility time

CCn1c(=O)c2c(nc(/C=C/c3ccc(OC)c(OC)c3)n2C)n(CC)c1=O [KW-6002, 8-[(1E)-2-(3,4-dimethoxyphenyl)ethenyl]-1,3-diethyl-3,7-dihydro-7-methyl-1H-purine-2,6-dione]
total immobility time [2]: reduced the total immobility time
contralateral rotations [3]: enhance contralateral rotations
functional loss of dopaminergic nerve terminals in the striatum [4]: prevented functional loss of dopaminergic nerve terminals in the striatum
gliosis normally induced around degenerating neurons [4]: prevented gliosis
motor impairment induced by MPTP [5]: significantly improves motor impairment
dyskinesias ([5]; MPTP): without causing dyskinesias

Nc1nc2c(cnn2CCc2ccccc2)c2nc(-c3ccco3)nn12 [SCH58261, 2-(2-furanyl)-7-(2-phenylethyl)-7H-pyrazolo[4,3-e][1,2,4]triazolo[1,5-c]pyrimidin-5-amine]
immobility [2, 6]: reduce immobility
immobility ([2]; mice selectively bred for their helplessness): reduced immobility
total immobility time [2]: reduced the total immobility time
contralateral rotations [3]: enhance contralateral rotations

Nc1nc(NCCc2ccc(O)cc2)nc2nc(-c3ccco3)nn12 [ZM241385, 4-(2-[7-amino-2-(2-furyl)[1,2,4]triazolo[2,3-a][1,3,5]triazin-5-ylamino]-ethyl)phenol]
immobility [2, 6]: reduce immobility

Nc1ncnc2c1ncn2[C@@H]1O[C@H](CO)[C@@H](O)[C@H]1O [adenosine]
immobility time [1]: increased immobility time
